From US10738028B2, “Spiro three-membered ring, spiro five-membered ring peptide deformylase inhibitor and use thereof in antibacteria and anti-tumor” (priority 2016, dated 2020)
Converted amounts (≈) assume the structure as drawn.

Experiments:
Type in all cases: cell-based
[1] = test system: Enterococcus faecalis (EFA); test: MIC, two-fold agar dilution (CLSI), clinical isolates
Excerpt: (§1) 1. The invention adopts the two-fold agar dilution method recommended by the operating procedure of antimicrobial susceptibility testing set by American Clinical and Laboratory Standards Institute (CLSI) to determine the Minimum Inhibitory Concentration (MIC) of the test samples against the tested strains.

[2] = test system: Enterococcus faecium (EFM); test: as above
Excerpt: as §1

[3] = test system: Escherichia coli (including ESBLs, non-ESBLs); test: as above
Excerpt: as §1

[4] = test system: Moraxella catarrhalis (BCA); test: as above; settings: for Anti-bacterial activity (MIC), strain BCA 14-10: clinical isolate BCA 14-10
Excerpt: as §1

[5] = test system: Streptococcus pneoumoniae (SPN); test: as above
Excerpt: as §1

[6] = test system: methicillin-resistant Staphylococcus aureus (MRSA); test: as above
Excerpt: as §1

[7] = test system: methicillin-resistant Staphylococcus epidermidis (MRSE); test: as above
Excerpt: as §1

[8] = test system: methicillin-sensitive Staphylococcus aureus (MSSA); test: as above
Excerpt: as §1

[9] = test system: methicillin-sensitive Staphylococcus epidermidis (MSSE); test: as above
Excerpt: as §1

[10] = test system: HCT-116 colorectal cancer cell line; test: CCK-8 proliferation inhibition; settings: Homo sapiens, HCT-116, 72 h, concentration of 30 μM; 72 hours; CCK-8; read-out: HCT116 inhibition rate/%
In short: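 HCT-116 cells, seeded at 2000 cells/well in McCoy's 5A with 10% newborn bovine serum, were cultured overnight at 37° C., 5% CO2, then exposed to compound dilutions in medium for 72 hours. Viability was read with 1:10 diluted CCK-8; controls received 1‰ DMSO.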

SMILES: O=CN(O)C[C@@H](CC1CCCC1)C(=O)N1CC2(CC2)C[C@H]1C(=O)Nc1ccncn1 [Example 27, (S)-5-((R)-3-cyclopentyl-2-((N-hydroxyformamido)methyl)propionyl)-N-(pyrimidin-4-yl)-5-spiro[2.4]heptane-6-carboxamide]
- MIC (anti-bacterial activity) ([1]; strain EFA 15-1): 2 µg/mL (≈ 4.81 µM)
- MIC (anti-bacterial activity) ([1]; strain EFA 15-2): 2 µg/mL (≈ 4.81 µM)
- MIC (anti-bacterial activity) ([1]; strain EFA 15-3): 2 µg/mL (≈ 4.81 µM)
- MIC (anti-bacterial activity) ([1]; strain EFA 15-4): 2 µg/mL (≈ 4.81 µM)
- MIC (anti-bacterial activity) ([1]; strain EFA 15-5): 2 µg/mL (≈ 4.81 µM)
- MIC (anti-bacterial activity) ([1]; strain EFA 15-6): 2 µg/mL (≈ 4.81 µM)
- MIC (anti-bacterial activity) ([1]; strain EFA 15-9): 2 µg/mL (≈ 4.81 µM)
- MIC (anti-bacterial activity) ([2]; strain EFM 15-1): 0.25 µg/mL (≈ 0.602 µM)
- MIC (anti-bacterial activity) ([2]; strain EFM 15-2): 1 µg/mL (≈ 2.41 µM)
- MIC (anti-bacterial activity) ([2]; strain EFM 15-3): 0.25 µg/mL (≈ 0.602 µM)
- MIC (anti-bacterial activity) ([2]; strain EFM 15-4): 0.5 µg/mL (≈ 1.2 µM)
- MIC (anti-bacterial activity) ([2]; strain EFM 15-5): 0.25 µg/mL (≈ 0.602 µM)
- MIC (anti-bacterial activity) ([2]; strain EFM 15-6): 0.5 µg/mL (≈ 1.2 µM)
- MIC (anti-bacterial activity) ([3]; strain ECO+ 15-1): 16 µg/mL (≈ 38.5 µM)
- MIC (anti-bacterial activity) ([3]; strain ECO+ 15-2): 32 µg/mL (≈ 77 µM)
- MIC (anti-bacterial activity) ([3]; strain ECO+ 15-3): 32 µg/mL (≈ 77 µM)
- MIC (anti-bacterial activity) ([3]; strain ECO+ 15-4): 32 µg/mL (≈ 77 µM)
- MIC (anti-bacterial activity) ([3]; strain ECO− 15-1): 32 µg/mL (≈ 77 µM)
- MIC (anti-bacterial activity) ([3]; strain ECO− 15-2): 32 µg/mL (≈ 77 µM)
- MIC (anti-bacterial activity) ([3]; strain ECO− 15-3): 32 µg/mL (≈ 77 µM)
- MIC (anti-bacterial activity) ([3]; strain ECO− 15-4): 32 µg/mL (≈ 77 µM)
- Anti-bacterial activity (MIC), strain BCA 14-10 [4]: 0.5 µg/mL
- MIC (anti-bacterial activity) ([4]; strain BCA 14-1): 2 µg/mL (≈ 4.81 µM)
- MIC (anti-bacterial activity) ([4]; strain BCA 14-4): 2 µg/mL (≈ 4.81 µM)
- MIC (anti-bacterial activity) ([4]; strain BCA 14-5): 0.25 µg/mL (≈ 0.602 µM)
- MIC (anti-bacterial activity) ([4]; strain BCA 14-6): 0.125 µg/mL (≈ 0.301 µM)
- MIC (anti-bacterial activity) ([4]; strain BCA 14-7): 0.25 µg/mL (≈ 0.602 µM)
- MIC (anti-bacterial activity) ([4]; strain BCA 14-8): 0.5 µg/mL (≈ 1.2 µM)
- MIC (anti-bacterial activity) ([5]; strain SPN 16-2): 0.25 µg/mL (≈ 0.602 µM)
- MIC (anti-bacterial activity) ([5]; strain SPN 16-4): 2 µg/mL (≈ 4.81 µM)
- MIC (anti-bacterial activity) ([6]; strain MRSA 15-1): 0.125 µg/mL (≈ 0.301 µM)
- MIC (anti-bacterial activity) ([6]; strain MRSA 15-2): 0.125 µg/mL (≈ 0.301 µM)
- MIC (anti-bacterial activity) ([6]; strain MRSA 15-3): 0.125 µg/mL (≈ 0.301 µM)
- MIC (anti-bacterial activity) ([6]; strain MRSA 15-4): 0.125 µg/mL (≈ 0.301 µM)
- MIC (anti-bacterial activity) ([7]; strain MRSE 15-1): 0.06 µg/mL (≈ 0.144 µM)
- MIC (anti-bacterial activity) ([7]; strain MRSE 15-2): 0.125 µg/mL (≈ 0.301 µM)
- MIC (anti-bacterial activity) ([7]; strain MRSE 15-3): 0.125 µg/mL (≈ 0.301 µM)
- MIC (anti-bacterial activity) ([7]; strain MRSE 15-7): 0.125 µg/mL (≈ 0.301 µM)
- MIC (anti-bacterial activity) ([8]; strain MSSA 15-3): 0.125 µg/mL (≈ 0.301 µM)
- MIC (anti-bacterial activity) ([8]; strain MSSA 15-4): 0.125 µg/mL (≈ 0.301 µM)
- MIC (anti-bacterial activity) ([8]; strain MSSA 15-5): 0.125 µg/mL (≈ 0.301 µM)
- MIC (anti-bacterial activity) ([8]; strain MSSA 15-6): 0.125 µg/mL (≈ 0.301 µM)
- MIC (anti-bacterial activity) ([9]; strain MSSE 15-3): 0.125 µg/mL (≈ 0.301 µM)
- MIC (anti-bacterial activity) ([9]; strain MSSE 15-4): 0.125 µg/mL (≈ 0.301 µM)
- MIC (anti-bacterial activity) ([9]; strain MSSE 15-5): 0.125 µg/mL (≈ 0.301 µM)
- MIC (anti-bacterial activity) ([9]; strain MSSE 15-6): 0.125 µg/mL (≈ 0.301 µM)
- inhibition at 30 µM [10]: 17%

SMILES: O=CN(O)C[C@@H](CC1CCCC1)C(=O)N1CC2(CC2)C[C@H]1C(=O)Nc1ccc(F)cn1 [Example 28]
- MIC (anti-bacterial activity) ([1]; strain EFA 15-1): 2 µg/mL (≈ 4.62 µM)
- MIC (anti-bacterial activity) ([1]; strain EFA 15-2): 2 µg/mL (≈ 4.62 µM)
- MIC (anti-bacterial activity) ([1]; strain EFA 15-3): 2 µg/mL (≈ 4.62 µM)
- MIC (anti-bacterial activity) ([1]; strain EFA 15-4): 2 µg/mL (≈ 4.62 µM)
- MIC (anti-bacterial activity) ([1]; strain EFA 15-5): 2 µg/mL (≈ 4.62 µM)
- MIC (anti-bacterial activity) ([1]; strain EFA 15-6): 2 µg/mL (≈ 4.62 µM)
- MIC (anti-bacterial activity) ([1]; strain EFA 15-9): 2 µg/mL (≈ 4.62 µM)
- MIC (anti-bacterial activity) ([2]; strain EFM 15-1): 0.5 µg/mL (≈ 1.16 µM)
- MIC (anti-bacterial activity) ([2]; strain EFM 15-2): 1 µg/mL (≈ 2.31 µM)
- MIC (anti-bacterial activity) ([2]; strain EFM 15-3): 0.125 µg/mL (≈ 0.289 µM)
- MIC (anti-bacterial activity) ([2]; strain EFM 15-4): 1 µg/mL (≈ 2.31 µM)
- MIC (anti-bacterial activity) ([2]; strain EFM 15-5): 1 µg/mL (≈ 2.31 µM)
- MIC (anti-bacterial activity) ([2]; strain EFM 15-6): 1 µg/mL (≈ 2.31 µM)
- MIC (anti-bacterial activity) ([3]; strain ECO+ 15-1): 16 µg/mL (≈ 37 µM)
- MIC (anti-bacterial activity) ([3]; strain ECO+ 15-2): 64 µg/mL (≈ 148 µM)
- MIC (anti-bacterial activity) ([3]; strain ECO+ 15-3): 64 µg/mL (≈ 148 µM)
- MIC (anti-bacterial activity) ([3]; strain ECO+ 15-4): 32 µg/mL (≈ 74 µM)
- MIC (anti-bacterial activity) ([3]; strain ECO− 15-1): 32 µg/mL (≈ 74 µM)
- MIC (anti-bacterial activity) ([3]; strain ECO− 15-2): 32 µg/mL (≈ 74 µM)
- MIC (anti-bacterial activity) ([3]; strain ECO− 15-3): 64 µg/mL (≈ 148 µM)
- MIC (anti-bacterial activity) ([3]; strain ECO− 15-4): 64 µg/mL (≈ 148 µM)
- Anti-bacterial activity (MIC), strain BCA 14-10 [4]: 0.25 µg/mL
- MIC (anti-bacterial activity) ([4]; strain BCA 14-1): 1 µg/mL (≈ 2.31 µM)
- MIC (anti-bacterial activity) ([4]; strain BCA 14-4): 1 µg/mL (≈ 2.31 µM)
- MIC (anti-bacterial activity) ([4]; strain BCA 14-5): 0.25 µg/mL (≈ 0.578 µM)
- MIC (anti-bacterial activity) ([4]; strain BCA 14-6): 1 µg/mL (≈ 2.31 µM)
- MIC (anti-bacterial activity) ([4]; strain BCA 14-7): 0.125 µg/mL (≈ 0.289 µM)
- MIC (anti-bacterial activity) ([4]; strain BCA 14-8): 0.5 µg/mL (≈ 1.16 µM)
- MIC (anti-bacterial activity) ([5]; strain SPN 16-4): 1 µg/mL (≈ 2.31 µM)
- MIC (anti-bacterial activity) ([6]; strain MRSA 15-1): 0.125 µg/mL (≈ 0.289 µM)
- MIC (anti-bacterial activity) ([6]; strain MRSA 15-2): 0.125 µg/mL (≈ 0.289 µM)
- MIC (anti-bacterial activity) ([6]; strain MRSA 15-3): 0.125 µg/mL (≈ 0.289 µM)
- MIC (anti-bacterial activity) ([6]; strain MRSA 15-4): 0.125 µg/mL (≈ 0.289 µM)
- MIC (anti-bacterial activity) ([7]; strain MRSE 15-1): 0.125 µg/mL (≈ 0.289 µM)
- MIC (anti-bacterial activity) ([7]; strain MRSE 15-2): 0.5 µg/mL (≈ 1.16 µM)
- MIC (anti-bacterial activity) ([7]; strain MRSE 15-3): 0.5 µg/mL (≈ 1.16 µM)
- MIC (anti-bacterial activity) ([7]; strain MRSE 15-7): 0.5 µg/mL (≈ 1.16 µM)
- MIC (anti-bacterial activity) ([8]; strain MSSA 15-3): 0.125 µg/mL (≈ 0.289 µM)
- MIC (anti-bacterial activity) ([8]; strain MSSA 15-4): 0.125 µg/mL (≈ 0.289 µM)
- MIC (anti-bacterial activity) ([8]; strain MSSA 15-5): 0.125 µg/mL (≈ 0.289 µM)
- MIC (anti-bacterial activity) ([8]; strain MSSA 15-6): 0.125 µg/mL (≈ 0.289 µM)
- MIC (anti-bacterial activity) ([9]; strain MSSE 15-3): 0.125 µg/mL (≈ 0.289 µM)
- MIC (anti-bacterial activity) ([9]; strain MSSE 15-4): 0.125 µg/mL (≈ 0.289 µM)
- MIC (anti-bacterial activity) ([9]; strain MSSE 15-5): 0.125 µg/mL (≈ 0.289 µM)
- MIC (anti-bacterial activity) ([9]; strain MSSE 15-6): 0.06 µg/mL (≈ 0.139 µM)
- inhibition at 30 µM [10]: 21%
